Source: ChEMBL document CHEMBL3259599, “Novel colchicine-site binders with a cyclohexanedione scaffold identified through a ligand-based virtual screening approach” (J Med Chem, 2014)
The source made the active and inactive calls. No cut-off for these calls is given here.

What was measured:
[1] = Antiproliferative activity against HMEC1 after 4 days by coulter counter analysis; format: functional; conditions: Homo sapiens, HMEC-1, 96 h
[2] = Antiproliferative activity against MBEC after 3 days by coulter counter analysis; format: functional, Mus musculus
[3] = Antiproliferative activity against BAEC after 3 days by coulter counter analysis; format: functional; conditions: Bos taurus, 72 h
L1210 = assay: Antiproliferative activity against mouse L1210 cells after 48 to 96 hrs by coulter counter analysis; format: functional, cell-based
CCRF-CEM = assay: Antiproliferative activity against human CEM cells after 48 to 96 hrs by coulter counter analysis; format: functional, cell-based
HeLa = assay: Antiproliferative activity against human HeLa cells after 4 days by coulter counter analysis; format: functional, cell-based; conditions: 96 h
Tubulin (Bos taurus) [4] = molecular target: T1, Tubulin (Bos taurus) (UniProt Q6B856+Q862L2+Q862F3); assay: Displacement of MTC from calf brain tubulin colchicine binding site at 20 uM by fluorescence spectroscopic analysis
Tubulin (Bos taurus) [5] = molecular target: T1, Tubulin (Bos taurus); assay: Displacement of R-PT from calf brain tubulin at 25 degC by fluorescence spectroscopic analysis
[6] = Cell cycle arrest in HMEC1 cells assessed as accumulation at subG1 phase at 0.03 uM after 24 hrs by propidium iodide staining-based flow cytometric analysis; format: functional; conditions: Homo sapiens, HMEC-1
[7] = Cell cycle arrest in HMEC1 cells assessed as accumulation at G2/M phase at 0.03 uM after 24 hrs by propidium iodide staining-based flow cytometric analysis; format: functional; conditions: Homo sapiens, HMEC-1
MDA-MB-231 [8] = assay: Competitive binding affinity to beta-tubulin in human MDA-MB-231 cells assessed as inhibition of protein-N/N'-ethylene-bis(iodoacetamide) adduct formation at 0.5 uM preincubated for 16 hrs followed by N/N'-ethylene-bis(iodoacetamide) formation measured after 1.5 hrs by Western blot analysis; format: cell-based
HMEC-1 = assay: Antivascular activity in HMEC1 cells assessed as destruction of cord like structure at 0.3 to 1 uM after 90 mins by matrigel assay; format: functional, cell-based; conditions: Homo sapiens
MDA-MB-231 [9] = assay: Antimigratory activity against human MDA-MB-231 cells at 0.08 uM after 17 hrs by Transwell assay; format: functional, cell-based
MDA-MB-231 [10] = assay: Antiinvasive activity against human MDA-MB-231 cells at 0.08 uM after 17 hrs by Transwell assay; format: functional, cell-based
MDA-MB-231 [11] = assay: Antiproliferative activity against human MDA-MB-231 cells at 0.08 uM after 17 hrs; format: functional, cell-based
Rattus norvegicus = organism: Rattus norvegicus; assay: Binding affinity to rat brain tubulin at 37 degC after 1 to 2 mins by DEAE cellulose filter paper method
[12] = Cell cycle arrest in HMEC1 cells assessed as accumulation at subG1 phase at 1 uM after 24 hrs by propidium iodide staining-based flow cytometric analysis; format: functional; conditions: Homo sapiens, HMEC-1
[13] = Cell cycle arrest in HMEC1 cells assessed as accumulation at G2/M phase at 1 uM after 24 hrs by propidium iodide staining-based flow cytometric analysis; format: functional; conditions: Homo sapiens, HMEC-1
Tubulin (Homo sapiens) = Tubulin (Homo sapiens) (UniProt P68371+Q9H4B7+P0DPH7+P68366+Q13509+Q71U36+P04350+Q3ZCM7+P07437+P68363+Q9BQE3+Q6PEY2+Q13885+Q9BVA1+Q9BUF5)
Description: Binding affinity to tubulin (unknown origin)

| SMILES | IC50 [1] [µM] | IC50 [2] [µM] | IC50 [3] [µM] | IC50 (L1210) [µM] | IC50 (CCRF-CEM) [µM] | IC50 (HeLa) [µM] | also measured |
| --- | --- | --- | --- | --- | --- | --- | --- |
| CC(Nc1ccccc1F)=C1C(=O)CC(c2ccccc2)CC1=O (stereo not drawn) | 0.93 | 1 | 0.51 | 1.9 | 1.1 | 3.4 |  |
| COc1ccccc1NC(C)=C1C(=O)CC(c2c(C)cccc2C)CC1=O (stereo not drawn) | 35 | 39 | 41 | 24 | 23 | 55 |  |
| COc1cccc(OC)c1NC(C)=C1C(=O)CC(c2ccccc2)CC1=O (stereo not drawn) | 1.4 | 1.2 | 0.46 | 1 | 1.4 | 1.1 |  |
| COc1ccccc1NC(C)=C1C(=O)CC(c2ccc(F)cc2)CC1=O (stereo not drawn) | 1.8 | 2.1 | 1.7 | 3.3 | 5.3 | 4 |  |
| CCC(Nc1cccc(O)c1)=C1C(=O)CC(c2ccccc2)CC1=O (stereo not drawn) | 13 | 12 | 7.8 | 15 | 48 | 75 |  |
| COc1ccccc1NC(C)=C1C(=O)CC(c2ccccc2C)CC1=O (stereo not drawn) | 5.8 | 6.8 | 3.2 | 11 | 7.2 | 13 |  |
| COc1ccccc1NC(C)=C1C(=O)CC(c2c(F)cccc2F)CC1=O (stereo not drawn) | 39 | 60 | > 100 | > 100 | > 100 | > 100 |  |
| CCC(Nc1cccc(OC)c1)=C1C(=O)CC(c2ccccc2)CC1=O (stereo not drawn) | 18 | 16 | 64 | 32 | 45 | 66 |  |
| CC(Nc1ccccc1Cl)=C1C(=O)CC(c2ccccc2)CC1=O (stereo not drawn) | 0.56 | 0.47 | 0.29 | 0.7 | 0.64 | 0.71 |  |
| CCCC(Nc1ccccc1C)=C1C(=O)CC(c2ccccc2)CC1=O (stereo not drawn) | 44 | 47 | 46 | 41 | ≥ 100 | > 100 |  |
| COc1ccccc1NC(C)=C1C(=O)CC(c2ccccc2F)CC1=O (stereo not drawn) | 4.3 | 5.4 | 2.7 | 6.3 | 4.9 | 4.8 |  |
| CCC(Nc1ccc(O)cc1)=C1C(=O)CC(c2ccccc2)CC1=O (stereo not drawn) | 28 | 18 | 36 | 14 | 34 | 79 |  |
| CCC(Nc1ccccc1OC)=C1C(=O)CC(c2ccccc2)CC1=O (stereo not drawn) | 1.4 | 1.4 | 1.2 | 1.5 | 2.3 | 4.3 | inhibition (Tubulin (Bos taurus) [4]): Active; Ka (Tubulin (Bos taurus) [5]): 7.1 ×10⁶ /M |
| CC(Nc1c(F)cccc1F)=C1C(=O)CC(c2ccccc2)CC1=O (stereo not drawn) | 6.6 | 9.2 | 8.4 | 11 | 21 | 17 |  |
| COc1cccc(C2CC(=O)C(=C(C)Nc3ccccc3C)C(=O)C2)c1 (stereo not drawn) | 0.67 | 0.64 | 0.48 | 0.26 | 0.72 | 0.66 |  |
| COc1ccc(C2CC(=O)C(=C(C)Nc3ccccc3OC)C(=O)C2)cc1 (stereo not drawn) | > 100 | > 100 | > 100 | > 100 | > 100 | > 100 |  |
| CCC(Nc1cc(OC)c(OC)c(OC)c1)=C1C(=O)CC(c2ccccc2)CC1=O (stereo not drawn) | > 100 | > 100 | > 100 | > 100 | > 100 | > 100 |  |
| CCC(Nc1ccccc1)=C1C(=O)CC(c2ccccc2)CC1=O (stereo not drawn) | 15 | 8.3 | 16 | 22 | 21 | 56 |  |
| COc1cccc(C2CC(=O)C(=C(C)Nc3ccccc3OC)C(=O)C2)c1 (stereo not drawn) | 0.3 | 0.41 | 0.23 | 0.21 | 0.24 | 0.69 | inhibition (Tubulin (Bos taurus) [4]): Active; Ka (Tubulin (Bos taurus) [5]): 7.5 ×10⁶ /M |

| SMILES | IC50 [1] [µM] | IC50 [2] [µM] | IC50 [3] [µM] | IC50 (L1210) [µM] | IC50 (CCRF-CEM) [µM] | IC50 (HeLa) [µM] | also measured |
| --- | --- | --- | --- | --- | --- | --- | --- |
| CCC(Nc1ccc2c(c1)OCO2)=C1C(=O)CC(c2ccccc2)CC1=O (stereo not drawn) | 53 | 50 | 43 | 38 | 53 | 76 |  |
| COc1ccccc1NC(C)=C1C(=O)CC(c2cccc(C)c2)CC1=O (stereo not drawn) | 0.33 | 0.42 | 0.26 | 0.17 | 0.31 | 0.79 |  |
| COc1ccccc1NC(C)=C1C(=O)CC(c2ccc(Cl)cc2)CC1=O (stereo not drawn) | 55 | 46 | 42 | 22 | 28 | 58 |  |
| COc1cc2c(c(OC)c1OC)-c1ccc(OC)c(=O)cc1[C@@H](NC(C)=O)CC2 [COLCHICINE] |  | 0.031 | 0.0069 | 0.01 |  |  | Activity [6]: Active; Activity [7]: Active; inhibition (MDA-MB-231 [8]): Active; Activity (HMEC-1): Active; inhibition (MDA-MB-231 [9]): Active; inhibition (MDA-MB-231 [10]): Active; Activity (MDA-MB-231 [11]): Active |
| COc1cc([C@@H]2c3cc4c(cc3[C@H](O)[C@H]3COC(=O)[C@H]23)OCO4)cc(OC)c1OC |  |  |  |  |  |  | Ka (Rattus norvegicus): 1.8 ×10⁶ /M |
| CCC(Nc1ccc(OC)c(OC)c1)=C1C(=O)CC(c2ccccc2)CC1=O (stereo not drawn) | > 100 | > 100 | > 100 | > 100 | > 100 | > 100 |  |
| CC(Nc1ccccc1C)=C1C(=O)CC(c2ccccc2)CC1=O (stereo not drawn) | 0.26 | 0.32 | 0.17 | 0.3 | 0.68 | 0.48 | Activity [12]: Active; Activity [13]: Active |
| COc1ccccc1NC(C)=C1C(=O)CC(C)(C)CC1=O | 76 | 71 | 48 | > 100 | > 100 | > 100 |  |
| CC(Nc1cccc(F)c1F)=C1C(=O)CC(c2ccccc2)CC1=O (stereo not drawn) | 10 | 12 | 14 | 19 | 25 | 36 |  |
| CCCC(Nc1ccccc1OC)=C1C(=O)CC(c2ccccc2)CC1=O (stereo not drawn) | 31 | 27 | 16 | 36 | 41 | 59 |  |
| COC(=O)Nc1nc2cc(C(=O)c3cccs3)ccc2[nH]1 |  |  |  |  |  |  | Ka (Tubulin (Homo sapiens)): 4 ×10⁵ /M |
| CC(Nc1ccccc1C(F)(F)F)=C1C(=O)CC(c2ccccc2)CC1=O (stereo not drawn) | 7.7 | 8.7 | 8.1 | 14 | 18 | 32 |  |
| CC(Nc1ccccc1C)=C1C(=O)CC(c2cccc(O)c2)CC1=O (stereo not drawn) | 2.2 | 2.5 | 2.1 | 3.5 | 6.2 | 4.1 |  |
| COc1ccccc1NC(C)=C1C(=O)CC(C2CCCCC2)CC1=O (stereo not drawn) | 12 | 21 | 12 | > 8 | 15 | 11 |  |
| COc1ccccc1NC(C)=C1C(=O)CC(c2ccc(C)cc2)CC1=O (stereo not drawn) | 11 | 9.2 | 8.4 | > 100 | > 100 | 90 |  |
| CCC(Nc1ccccc1C)=C1C(=O)CC(c2ccccc2)CC1=O (stereo not drawn) | 2.1 | 2.8 | 2.2 | 6.9 | 6.3 | 9.2 |  |
| COc1ccc(OC)c(NC(C)=C2C(=O)CC(c3ccccc3)CC2=O)c1 (stereo not drawn) | 2.6 | 3.2 | 2.6 | 36 | > 6 | 46 |  |
| CCC(Nc1ccc(OC)cc1)=C1C(=O)CC(c2ccccc2)CC1=O (stereo not drawn) | ≥ 100 | 57 | ≥ 100 | 58 | 67 | ≥ 100 |  |
| COc1ccccc1NC(C)=C1C(=O)CC(Cc2ccccc2)CC1=O (stereo not drawn) | 22 | 87 | > 100 | > 100 | > 100 | > 100 |  |
